Test results reported in patent US10526327B2, “Histone demethylase inhibitors” (CELGENE QUANTICEL RESEARCH, INC., priority 2013, dated 2020).

Legend:
[1] = system: KDM5A/B; experiment: In vitro cell-based assay: immuno-blot quantification of tri-methyl H3K4 in ZR-75-1 breast cancer cells; settings: 72 hours, tri-methyl H3K4 level relative to GAPDH, percent of DMSO, read-out: Cellular IC50
Method in brief: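 ZR-75-1 breast cancer cells treated 72 h with 11-point compound dilutions (1250 μM to 10 nM). H3K4me3 quantified by infrared immunoblot densitometry, normalized to GAPDH and expressed as percent of DMSO control; relative IC50 from curve fit.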

[2] = molecular target: T1, JMJD2C (Homo sapiens, UniProt Q9H3R0); experiment: JMJD2C in vitro enzyme inhibition assay (TR-FRET); type: biochemical
T1 construct: purchased BPS Bioscience 50105
T1 sequence (Q9H3R0 2-372): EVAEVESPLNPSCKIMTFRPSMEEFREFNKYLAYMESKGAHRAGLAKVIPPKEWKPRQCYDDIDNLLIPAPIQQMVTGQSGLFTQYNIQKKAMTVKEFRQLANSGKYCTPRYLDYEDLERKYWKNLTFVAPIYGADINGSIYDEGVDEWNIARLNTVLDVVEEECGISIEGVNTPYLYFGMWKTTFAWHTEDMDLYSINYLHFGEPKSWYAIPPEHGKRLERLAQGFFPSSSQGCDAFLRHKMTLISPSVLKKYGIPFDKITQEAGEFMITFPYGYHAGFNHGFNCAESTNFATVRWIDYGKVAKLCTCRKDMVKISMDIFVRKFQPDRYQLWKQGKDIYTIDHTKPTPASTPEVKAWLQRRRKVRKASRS
Method in brief: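 IC50 came from 665/615 TR-FRET ratios (Eu-anti-H3K9me2 antibody, streptavidin-APC, EDTA quench) over 11-point inhibitor series. Reactions ran 30 min at room temperature: 0.3 nM JMJD2C (AA 2-372, baculovirus), 300 nM biotinylated H3K9me3 peptide, 2 μM alpha-ketoglutarate, 2 μM Fe(II), ascorbate, pH 7.3.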

IC50 [1] [nM]	IC50 [2] [nM]	Structure (SMILES)
1000 to 10000	≤ 100	O=C(C1CC1)N1CCC[C@H](n2cc(Oc3nc(O)c4ccncc4n3)cn2)C1 [Example 165, 2-({1-[(3S)-1-cyclopropanecarbonylpiperidin-3-yl]-1H-pyrazol-4-yl}oxy)pyrido[3,4-d]pyrimidin-4-ol]
> 10000	≤ 100	N#CCC(=O)N1CCC[C@H](n2cc(Oc3nc(O)c4ccncc4n3)cn2)C1 [Example 166, 3-[(3S)-3-[4-({4-hydroxypyrido[3,4-d]pyrimidin-2-yl}oxy)-1H-pyrazol-1-yl]piperidin-1-yl]-3-oxopropanenitrile]
1000 to 10000	≤ 100	O=C(c1ccccc1)N1CCC[C@H](n2cc(Oc3nc(O)c4ccncc4n3)cn2)C1 [Example 167, 2-({1-[(3S)-1-benzoylpiperidin-3-yl]-1H-pyrazol-4-yl}oxy)pyrido[3,4-d]pyrimidin-4-ol]
1000 to 10000	≤ 100	Oc1nc(Oc2cnn([C@H]3CCCN(Cc4ccccc4)C3)c2)nc2cnccc12 [Example 168, 2-({1-[(3S)-1-benzylpiperidin-3-yl]-1H-pyrazol-4-yl}oxy)pyrido[3,4-d]pyrimidin-4-ol]
